Results published in ChEMBL document CHEMBL1201862, “PubChem BioAssay data set” (2004).
Calls of active or inactive are those of the source.

What was measured:
[1] = test system: CHO; test: cytotoxicity in TLR9-MyD88 CHO cells, dose response, cytotoxicity control for TLR9-MyD88 binding inhibitor project, cell-based, luminescence (AID 588339); type: functional, hamster; conditions: Cricetulus griseus;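 further: CHO cells stably coexpressing TLR9 and MyD88 fusions from primary screen; compound exposure lasted 48 hours before viability readout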
[2] = molecular target: Ras and Rab interactor 1/Tyrosine-protein kinase ABL1 (Homo sapiens, UniProt P00519+Q13671); type: functional;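 further: biochemical TR-FRET dose-response test measuring inhibition of binding between Rin1 and Abl proteins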
Ras and Rab interactor 1/Tyrosine-protein kinase ABL1, sequence (P00519 whole entry): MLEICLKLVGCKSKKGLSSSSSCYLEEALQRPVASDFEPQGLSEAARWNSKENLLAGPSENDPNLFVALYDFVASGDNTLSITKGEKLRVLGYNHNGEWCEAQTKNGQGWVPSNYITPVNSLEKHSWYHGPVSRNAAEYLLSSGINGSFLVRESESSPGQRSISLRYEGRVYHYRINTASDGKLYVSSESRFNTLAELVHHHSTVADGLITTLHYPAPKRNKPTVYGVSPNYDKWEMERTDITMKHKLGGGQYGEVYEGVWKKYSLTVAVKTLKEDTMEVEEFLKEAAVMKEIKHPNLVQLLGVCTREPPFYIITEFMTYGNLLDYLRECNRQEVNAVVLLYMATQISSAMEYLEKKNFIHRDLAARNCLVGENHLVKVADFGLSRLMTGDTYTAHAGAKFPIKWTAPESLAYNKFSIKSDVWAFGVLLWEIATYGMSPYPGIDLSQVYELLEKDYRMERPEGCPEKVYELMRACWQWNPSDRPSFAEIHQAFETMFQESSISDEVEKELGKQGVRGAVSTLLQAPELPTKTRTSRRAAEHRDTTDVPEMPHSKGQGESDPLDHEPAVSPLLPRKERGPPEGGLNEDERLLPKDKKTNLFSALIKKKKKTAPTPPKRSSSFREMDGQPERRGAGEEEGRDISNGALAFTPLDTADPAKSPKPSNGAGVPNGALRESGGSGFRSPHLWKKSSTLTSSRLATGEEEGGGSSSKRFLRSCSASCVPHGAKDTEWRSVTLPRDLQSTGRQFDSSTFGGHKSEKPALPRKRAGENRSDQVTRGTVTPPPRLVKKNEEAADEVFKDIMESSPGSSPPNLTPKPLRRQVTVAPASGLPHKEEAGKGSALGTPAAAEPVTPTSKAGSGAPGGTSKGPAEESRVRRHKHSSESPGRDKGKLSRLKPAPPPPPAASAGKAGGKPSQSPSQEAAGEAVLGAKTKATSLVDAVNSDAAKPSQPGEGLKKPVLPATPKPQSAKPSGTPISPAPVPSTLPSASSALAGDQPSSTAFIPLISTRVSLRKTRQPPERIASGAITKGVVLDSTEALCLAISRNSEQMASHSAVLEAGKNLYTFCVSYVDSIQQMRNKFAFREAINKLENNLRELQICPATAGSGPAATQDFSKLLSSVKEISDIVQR
Ras and Rab interactor 1/Tyrosine-protein kinase ABL1, sequence (Q13671 whole entry): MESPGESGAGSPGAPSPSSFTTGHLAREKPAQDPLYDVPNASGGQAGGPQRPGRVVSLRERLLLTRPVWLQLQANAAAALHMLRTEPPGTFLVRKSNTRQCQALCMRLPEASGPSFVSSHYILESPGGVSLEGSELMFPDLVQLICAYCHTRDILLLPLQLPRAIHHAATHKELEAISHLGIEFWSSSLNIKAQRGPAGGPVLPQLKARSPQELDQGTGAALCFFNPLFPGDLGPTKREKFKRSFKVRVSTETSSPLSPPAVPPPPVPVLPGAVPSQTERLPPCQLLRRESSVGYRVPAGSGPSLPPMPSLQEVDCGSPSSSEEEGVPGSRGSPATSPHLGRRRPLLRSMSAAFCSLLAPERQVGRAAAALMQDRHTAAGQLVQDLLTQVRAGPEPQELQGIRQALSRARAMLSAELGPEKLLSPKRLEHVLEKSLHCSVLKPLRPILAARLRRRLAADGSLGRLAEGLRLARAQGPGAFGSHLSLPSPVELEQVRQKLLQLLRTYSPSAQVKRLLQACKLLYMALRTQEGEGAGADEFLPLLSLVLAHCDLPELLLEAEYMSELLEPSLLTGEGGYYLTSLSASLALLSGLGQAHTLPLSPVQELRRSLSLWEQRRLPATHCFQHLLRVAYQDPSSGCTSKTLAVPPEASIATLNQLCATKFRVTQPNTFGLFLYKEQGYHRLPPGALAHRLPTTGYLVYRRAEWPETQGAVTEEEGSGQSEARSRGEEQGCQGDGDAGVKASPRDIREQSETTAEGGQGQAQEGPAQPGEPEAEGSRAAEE

[3] = molecular target: Adenosylmethionine-8-amino-7-oxononanoate aminotransferase (Mycobacterium tuberculosis, UniProt P9WQ81); test: Mycobacterium tuberculosis BioA enzyme inhibitor Measured in Biochemical System Using Plate Reader - 2163-02_Inhibitor_Dose_CherryPick_Activity.; type: functional, Mycobacterium tuberculosis UT205
Adenosylmethionine-8-amino-7-oxononanoate aminotransferase, sequence (P9WQ81 whole entry): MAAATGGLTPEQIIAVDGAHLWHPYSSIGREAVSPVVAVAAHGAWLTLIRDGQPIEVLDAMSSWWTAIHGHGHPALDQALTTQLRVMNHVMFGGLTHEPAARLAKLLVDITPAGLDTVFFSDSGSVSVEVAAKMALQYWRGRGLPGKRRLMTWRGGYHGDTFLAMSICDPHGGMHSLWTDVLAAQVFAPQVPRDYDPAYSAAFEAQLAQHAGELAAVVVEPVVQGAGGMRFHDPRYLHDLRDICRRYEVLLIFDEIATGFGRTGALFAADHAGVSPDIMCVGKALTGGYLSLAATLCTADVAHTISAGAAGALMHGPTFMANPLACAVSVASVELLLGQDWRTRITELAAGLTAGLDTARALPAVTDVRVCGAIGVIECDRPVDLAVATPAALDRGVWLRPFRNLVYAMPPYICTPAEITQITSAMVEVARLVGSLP

[4] = molecular target: T1, Alkaline phosphatase, tissue-nonspecific isozyme (Homo sapiens, UniProt P05186); test: human TNAP enzyme inhibitors, SAR follow-up, biochemical, luminescent, dose response (AID 1056)
T1 sequence (P05186 whole entry): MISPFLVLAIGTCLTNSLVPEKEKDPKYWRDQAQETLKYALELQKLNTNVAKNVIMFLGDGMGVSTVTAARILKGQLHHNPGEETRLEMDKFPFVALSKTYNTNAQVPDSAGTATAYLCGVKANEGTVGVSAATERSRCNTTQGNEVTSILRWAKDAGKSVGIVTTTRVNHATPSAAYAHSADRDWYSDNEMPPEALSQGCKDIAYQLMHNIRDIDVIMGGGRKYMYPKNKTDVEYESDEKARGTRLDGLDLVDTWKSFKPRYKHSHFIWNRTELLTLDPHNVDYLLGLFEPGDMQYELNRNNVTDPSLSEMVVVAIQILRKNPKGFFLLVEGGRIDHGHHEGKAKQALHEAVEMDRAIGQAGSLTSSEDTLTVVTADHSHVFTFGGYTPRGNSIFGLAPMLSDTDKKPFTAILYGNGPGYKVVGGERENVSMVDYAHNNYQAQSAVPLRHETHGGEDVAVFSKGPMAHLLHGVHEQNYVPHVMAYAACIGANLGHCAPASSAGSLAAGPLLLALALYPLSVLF

[5] = molecular target: Glyceraldehyde-3-phosphate dehydrogenase (Homo sapiens, UniProt P04406)
Glyceraldehyde-3-phosphate dehydrogenase, sequence (P04406 whole entry): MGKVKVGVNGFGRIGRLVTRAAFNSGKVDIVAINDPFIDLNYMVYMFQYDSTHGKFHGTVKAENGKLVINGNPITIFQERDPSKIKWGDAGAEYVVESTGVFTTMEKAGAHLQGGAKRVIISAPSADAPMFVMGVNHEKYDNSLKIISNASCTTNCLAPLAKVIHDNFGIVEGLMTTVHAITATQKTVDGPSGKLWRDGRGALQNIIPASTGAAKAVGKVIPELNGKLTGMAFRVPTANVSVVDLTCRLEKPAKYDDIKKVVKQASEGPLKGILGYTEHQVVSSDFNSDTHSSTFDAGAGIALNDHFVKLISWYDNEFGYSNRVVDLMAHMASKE

[6] = molecular target: T2, Hexokinase (Trypanosoma brucei, UniProt Q38C41); test: Confirmation assay for inhibitors of Trypanosoma brucei hexokinase 1-Analogue-first series. [Related pubchem assays (depositor defined):AID1430, AID1632, AID2516, AID2560, AID2579, AID2600, AID449725, AID492951]; type: functional
T2 sequence (Q38C41 whole entry): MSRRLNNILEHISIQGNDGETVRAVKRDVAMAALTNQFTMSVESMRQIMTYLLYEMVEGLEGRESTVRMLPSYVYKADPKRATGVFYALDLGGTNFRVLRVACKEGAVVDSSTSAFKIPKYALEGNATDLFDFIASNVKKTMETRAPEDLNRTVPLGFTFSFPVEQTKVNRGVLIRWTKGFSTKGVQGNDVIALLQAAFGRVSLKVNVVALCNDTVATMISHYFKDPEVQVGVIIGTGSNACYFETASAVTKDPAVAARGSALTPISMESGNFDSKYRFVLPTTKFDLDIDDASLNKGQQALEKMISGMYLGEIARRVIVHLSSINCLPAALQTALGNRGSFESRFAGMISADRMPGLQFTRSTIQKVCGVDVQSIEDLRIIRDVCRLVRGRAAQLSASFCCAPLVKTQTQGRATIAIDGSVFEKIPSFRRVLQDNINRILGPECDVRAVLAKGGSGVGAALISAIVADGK

[7] = molecular target: T3, Mannose-6-phosphate isomerase (Homo sapiens, UniProt P34949); test: PMI enzyme inhibitors, confirmation, biochemical, fluorescence intensity (AID 1535)
T3 sequence (P34949 whole entry): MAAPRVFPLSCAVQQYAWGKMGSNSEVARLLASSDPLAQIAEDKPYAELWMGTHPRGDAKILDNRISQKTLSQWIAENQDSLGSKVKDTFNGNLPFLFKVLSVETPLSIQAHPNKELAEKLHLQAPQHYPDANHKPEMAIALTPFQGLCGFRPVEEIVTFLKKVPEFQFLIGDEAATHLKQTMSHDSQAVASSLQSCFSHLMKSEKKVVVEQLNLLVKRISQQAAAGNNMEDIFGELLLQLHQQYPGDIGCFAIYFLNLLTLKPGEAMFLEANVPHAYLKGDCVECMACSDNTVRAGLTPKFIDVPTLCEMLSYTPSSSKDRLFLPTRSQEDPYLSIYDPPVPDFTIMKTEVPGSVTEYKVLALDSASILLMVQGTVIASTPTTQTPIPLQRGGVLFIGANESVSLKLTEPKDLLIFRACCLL

[8] = molecular target: 26S proteasome non-ATPase regulatory subunit 14 (Homo sapiens, UniProt O00487); test: inhibition of proteasome subunit RPN11 – biochemical, fluorescence polarization, uHTS hits, confirmation (AID 602368); type: functional
26S proteasome non-ATPase regulatory subunit 14, sequence (O00487 whole entry): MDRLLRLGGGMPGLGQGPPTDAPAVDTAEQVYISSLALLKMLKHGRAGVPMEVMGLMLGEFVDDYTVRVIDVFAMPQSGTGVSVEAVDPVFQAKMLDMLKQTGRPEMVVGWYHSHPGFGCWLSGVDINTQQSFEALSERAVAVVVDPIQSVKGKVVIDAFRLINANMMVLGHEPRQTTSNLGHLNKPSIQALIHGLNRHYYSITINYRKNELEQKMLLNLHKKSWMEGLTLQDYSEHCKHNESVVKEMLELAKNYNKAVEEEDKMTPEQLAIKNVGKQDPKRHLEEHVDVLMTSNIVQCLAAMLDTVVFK

[9] = molecular target: Prothrombin (Bos taurus, UniProt P00735); test: thrombin inhibition, dose response, biochemical, fluorescence polarization, uHTS hits (AID 602369); type: functional
[10] = molecular target: 72 kDa type IV collagenase (Homo sapiens, UniProt P08253); test: Dose Response validation of uHTS RPN11 inhibitor hits using a MMP-2 Fluorescence assay.; type: functional
72 kDa type IV collagenase, sequence (P08253 whole entry): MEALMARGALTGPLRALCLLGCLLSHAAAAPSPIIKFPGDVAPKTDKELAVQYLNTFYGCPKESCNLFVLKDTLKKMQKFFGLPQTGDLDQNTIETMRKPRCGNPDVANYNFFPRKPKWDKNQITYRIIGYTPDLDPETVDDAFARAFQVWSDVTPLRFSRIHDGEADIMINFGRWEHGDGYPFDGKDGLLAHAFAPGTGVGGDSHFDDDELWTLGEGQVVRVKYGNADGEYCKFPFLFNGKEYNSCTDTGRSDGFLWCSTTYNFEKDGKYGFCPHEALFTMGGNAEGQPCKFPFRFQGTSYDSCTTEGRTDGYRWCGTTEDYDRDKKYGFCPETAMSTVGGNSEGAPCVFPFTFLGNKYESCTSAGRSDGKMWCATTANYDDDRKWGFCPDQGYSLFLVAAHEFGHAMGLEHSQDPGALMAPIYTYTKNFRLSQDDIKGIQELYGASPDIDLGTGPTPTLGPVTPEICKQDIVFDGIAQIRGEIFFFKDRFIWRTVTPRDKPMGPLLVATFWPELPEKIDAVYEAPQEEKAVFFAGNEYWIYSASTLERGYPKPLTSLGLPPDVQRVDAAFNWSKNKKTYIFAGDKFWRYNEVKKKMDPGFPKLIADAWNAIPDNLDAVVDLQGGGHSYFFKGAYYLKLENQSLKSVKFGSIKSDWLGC

[11] = molecular target: Alkaline phosphatase, placental type (Homo sapiens, UniProt P05187); test: PLAP enzyme inhibitors, confirmation, biochemical, luminescence (AID 1512); type: functional
Alkaline phosphatase, placental type, sequence (P05187 whole entry): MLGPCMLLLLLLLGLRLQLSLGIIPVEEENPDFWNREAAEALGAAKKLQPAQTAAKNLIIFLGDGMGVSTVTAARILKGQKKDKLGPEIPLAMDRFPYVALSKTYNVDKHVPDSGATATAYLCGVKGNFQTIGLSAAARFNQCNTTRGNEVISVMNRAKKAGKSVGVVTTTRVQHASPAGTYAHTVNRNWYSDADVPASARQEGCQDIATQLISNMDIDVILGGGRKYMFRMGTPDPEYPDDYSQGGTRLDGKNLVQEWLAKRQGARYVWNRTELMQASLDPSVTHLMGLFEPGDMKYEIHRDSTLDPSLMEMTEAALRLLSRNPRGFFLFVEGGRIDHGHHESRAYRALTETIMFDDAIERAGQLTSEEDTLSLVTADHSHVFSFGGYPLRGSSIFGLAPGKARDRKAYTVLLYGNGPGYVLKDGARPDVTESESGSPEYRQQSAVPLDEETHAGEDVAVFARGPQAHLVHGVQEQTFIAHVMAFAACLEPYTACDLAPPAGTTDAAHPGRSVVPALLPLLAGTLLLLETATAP

[12] = molecular target: T4, High affinity choline transporter 1 (Homo sapiens, UniProt Q9GZV3); test: CHT inhibitors, dose response, cell-based, 5-point CRC, membrane potential dye (AID 504840); type: functional
T4 sequence (Q9GZV3 whole entry): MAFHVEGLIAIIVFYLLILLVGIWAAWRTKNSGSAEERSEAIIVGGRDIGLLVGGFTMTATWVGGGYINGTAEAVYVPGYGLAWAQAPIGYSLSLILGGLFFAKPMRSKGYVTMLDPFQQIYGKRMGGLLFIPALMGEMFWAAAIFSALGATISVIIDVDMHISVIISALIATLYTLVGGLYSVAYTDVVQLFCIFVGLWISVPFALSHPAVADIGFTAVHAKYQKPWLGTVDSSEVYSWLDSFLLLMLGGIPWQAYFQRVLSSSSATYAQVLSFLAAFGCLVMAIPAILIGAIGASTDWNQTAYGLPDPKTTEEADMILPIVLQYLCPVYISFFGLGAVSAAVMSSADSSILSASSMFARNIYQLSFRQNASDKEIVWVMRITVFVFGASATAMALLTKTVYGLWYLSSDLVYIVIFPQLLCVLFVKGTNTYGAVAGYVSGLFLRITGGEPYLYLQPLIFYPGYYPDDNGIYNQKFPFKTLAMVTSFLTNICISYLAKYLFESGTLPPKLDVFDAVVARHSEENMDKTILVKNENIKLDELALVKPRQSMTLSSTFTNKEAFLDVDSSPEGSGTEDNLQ

[13] = molecular target: T4, High affinity choline transporter 1; test: CHT inhibitors, dose response, cell-based, 10-point CRC, membrane potential dye (AID 588401); type: functional;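 further: membrane potential dye fluorescence of choline-evoked depolarization via CHT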

`O=C(NCc1cccc(C(F)(F)F)c1)c1cccc2c1C(=O)c1ccc(N3CCC(Cc4ccccc4)CC3)cc1S2(=O)=O` was tested, and the IC50 [1] was > 49.8 µM (inactive).

With `CCCCC(=O)C1CCN(Cc2ccccc2)CC1` the IC50 [2] was 19.4 µM (inactive).

For `Cc1cc(C)n2nc(C(=O)Nc3cccnc3)nc2n1`, the AC50 [3] was 4.85 µM (active).

For `COc1ccc(-c2cc(C(=O)O)[nH]n2)c(OC)c1`, the IC50 [4] was 38.2 µM (active) and the IC50 [5] was > 100 µM (not active).

In the case of `COc1ccc(C(=O)Nc2ccccc2C(=O)O)cc1`, the IC50 [6] is reported as > 25 µM (inactive).

For `Clc1ccnc(/N=c2\ssnc2Cl)c1`, the IC50 [7] was > 100 µM (inactive).

`O=C1CSC(=S)N1N=Cc1ccc(Cl)s1` was tested, and the IC50 [8] was 59.4 µM (active), the IC50 [9] was 27.1 µM (active) and the IC50 [10] was > 100 µM (inactive).

For `COc1cccc(C(=O)Nc2cc(Cl)ccc2C(=O)O)c1`, the IC50 [6] was 17.9 µM (active).

For `C=CCn1c(SCC(=O)c2ccc(O)c(O)c2)nnc1-c1ccccc1`, the IC50 [4] was 19.5 µM (active) and the IC50 [11] was 2.53 µM (active).

With `COc1ccc(C(=O)C[n+]2cccc(Br)c2)cc1` the IC50 [12] was 4.21 µM (active) and the IC50 [13] was 1.19 µM (active).
